Data as given in patent US20100035858A1, “Novel Compositions and Methods for Binding and Inhibiting 5-HT4 Receptor” (Immune Control, Inc., priority 2008, published 2010).
Entries after “also recorded” stand apart in the source; their conditions may differ. Where two headings read alike, the source gives them in different places. Each block holds one molecule with its values, some of them ahead of it.

How the values were obtained:
MDR1-MDCK [1] = assay: MDR1-MDCK Permeability (potential to cross the blood-brain barrier); conditions: for Brain Penetration Classification: from A-B Papp and efflux ratio
[2] = system: rat model of collagen-induced arthritis; assay: Rat model of collagen-induced arthritis, ankle diameter; format: in vivo; conditions: for reduction of ankle diameter: 10 mg/kg ip daily, about 3 days, caliper measurement; for efficacy in reducing ankle diameter compared with Enbrel: rheumatoid arthritis rat model, versus Enbrel
Method: The next set of experiments was designed to test the ability of the compounds of the invention on a rat model of collagen-induced arthritis. Briefly, Female Lewis rats were immunized with bovine type 2 collagen 2 mg/mL in 0.01N HAc mixed 1:1 w/ FIA injected id 0.1 mL at each of three sites on back (Rosloniec, E. F., A. H. Kang, L. K. Myers, M. A. Cremer. 1996. Collagen-induced arthritis. R. Coico, and E. Shevach, eds. Current Protocols in Immunology 15.5.1. Weily & Sons, New York.).
FIG. 2 depicts a schematic of the collagen-induced arthritis protocol. Briefly, a test compound of the invention is delivered ip at 10 mg/kg daily, for about 3 days.
FIG. 4 depicts ICI 1260, 1259, 848, 849, 761, 715, and 847 with respect to Enbrel. Additional testing for the effectiveness of compounds ICI 1260, 1259, 848, 849, 761, 715, and 847 at various concentrations (10 mg/kg, 2 mg/kg, 0.4 mg/kg) were conducted, as illustrated in FIGS. 5A-5G. A dose response curve was constructed to illustrate the efficacy of the seven compounds (FIG. 6).

[3] = target: histamine type 1 receptor (Homo sapiens, UniProt P35367); assay: Binding to non-5-HT receptors: histamine type 1 receptor; conditions: FIG. 12
Method: (§1) The methods employed in this study have been adapted from the scientific literature to maximize reliability and reproducibility. Where presented, IC50 values were determined by a non-linear, least squares regression analysis using the DATA ANALYSIS TOOLBOX (MDL Information Systems, San Leandro, Calif., USA). Where inhibition constants (Ki) are presented, the Ki values were calculated using the equation of Cheng and Prusoff (Cheng, Y., Prusoff, W. H., Biochem. Pharmacol. 22:3099-3108, 1973) or equivalent using the observed IC50 of the tested compound, the concentration of ligand employed in the assay, and historical values for the KD of the ligand.
The next set of experiments was designed to assess the selective binding of the test compounds to non-5-HT receptors. The compounds tested are as follows: ICI-735, 848, 849, 1259, and 1260. […] It was also observed that the compounds that bound well to 5-HT4 receptor also bound well to histamine type 1 receptor.

[4] = system: B-cell neoplastic cell line RPMI 8226; assay: Inhibition of proliferation of RPMI cells; format: cell-based; conditions: RPMI cell viability, FIG. 1
Text: The next set of experiments was designed to assess compounds that have low levels of brain penetration for the ability of the test compounds to inhibit cellular proliferation. An exemplary in vitro assay is to screen for the ability of the test compounds to inhibit proliferation of the B-cell neoplastic cell line RPMI 8226 (a plasmacytoma derived from a multiple myeloma patient (Matsuoka, et al., 1967, Proc. Soc. Exp. Biol. Med. 125: 1246-1250). However other cell line can be used such as, U266 (established from an IgE-secreting myeloma patient (Nilsson, et al., 1970, Clin. Exp. Immunol., 7: 477-489) and ARH77 (an EBV transformed plasma cell leukemia (Burk, et al., 1978, Cancer Res. 38: 2508-2513).
FIG. 1 is a graph depicting the effects on the test compounds on RPMI cell viability.

Female Lewis rats = assay: Toxicity in Female Lewis rats; format: in vivo; conditions: 100 mg/kg ip, in comparison with PBS control
Method: The next set of experiments was designed to determine the toxicity of the compounds. Each compound was administered to Female Lewis rats at a dose of 100 mg/kg via ip administration.

MDR1-MDCK [5] = system: MDR1-MDCK
5-HT4 receptor = 5-HT4 receptor (Homo sapiens, UniProt Q13639); assay: 5-HT4 receptor binding; conditions: versus fluphenazine (ICI-1175), FIG. 8
Method: as §1
(§2) The experiments include contacting a serotonin type 1B, 2A, 2B, 2C, 3, 4, 6, and 7 receptor with a test compound and comparing the level of binding of serotonin or a control ligand with that serotonin type 1B, 2A, 2B, 2C, 3, 4, 6, and 7 receptor with the level of serotonin binding or control ligand binding with an otherwise identical serotonin type 1B, 2A, 2B, 2C, 3, 4, 6, and 7 receptor not contacted with the test compound. […] The skilled artisan would also appreciate, in view of the disclosure provided herein, that standard binding assays known in the art, or those to be developed in the future, can be used to assess the binding of serotonin or a control ligand with a serotonin type 1B. 2A, 2B, 2C, 3, 4, 6, and 7 receptor in the presence or absence of the test compound to identify a useful compound.
(§3) The next set of experiments was designed to assess the selective binding of the test compounds to 5-HT receptors. ICI-848, ICI-1259, and ICI-1260 were tested against fluphenazine (ICI-1175) to determine selective binding to 5-HT receptors.
The next set of experiments was designed to assess the Ki values of the tested compounds.

5-HT1A receptor = target: T1, 5-HT1A receptor (Homo sapiens, UniProt P08908); assay: 5-HT1A receptor binding; conditions: versus fluphenazine (ICI-1175), FIG. 8
T1 sequence (P08908 1-422): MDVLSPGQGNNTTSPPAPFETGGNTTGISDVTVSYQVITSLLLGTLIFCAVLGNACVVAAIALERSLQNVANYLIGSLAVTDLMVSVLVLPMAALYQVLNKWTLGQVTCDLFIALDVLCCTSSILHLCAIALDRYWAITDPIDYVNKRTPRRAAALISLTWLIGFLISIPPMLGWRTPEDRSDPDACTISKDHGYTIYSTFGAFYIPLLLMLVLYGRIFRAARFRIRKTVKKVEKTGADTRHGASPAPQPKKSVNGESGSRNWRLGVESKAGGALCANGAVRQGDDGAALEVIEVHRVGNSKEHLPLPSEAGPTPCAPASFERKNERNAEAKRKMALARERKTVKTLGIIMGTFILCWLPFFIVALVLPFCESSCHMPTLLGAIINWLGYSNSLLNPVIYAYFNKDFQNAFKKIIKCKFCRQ
Method: as §1, §3

5-HT2A receptor = 5-HT2A receptor (Homo sapiens, UniProt P28223); assay: 5-HT2A receptor binding; conditions: versus fluphenazine (ICI-1175), FIG. 8
Method: as §1, §2, §3

Sequence of histamine type 1 receptor (P35367 whole entry): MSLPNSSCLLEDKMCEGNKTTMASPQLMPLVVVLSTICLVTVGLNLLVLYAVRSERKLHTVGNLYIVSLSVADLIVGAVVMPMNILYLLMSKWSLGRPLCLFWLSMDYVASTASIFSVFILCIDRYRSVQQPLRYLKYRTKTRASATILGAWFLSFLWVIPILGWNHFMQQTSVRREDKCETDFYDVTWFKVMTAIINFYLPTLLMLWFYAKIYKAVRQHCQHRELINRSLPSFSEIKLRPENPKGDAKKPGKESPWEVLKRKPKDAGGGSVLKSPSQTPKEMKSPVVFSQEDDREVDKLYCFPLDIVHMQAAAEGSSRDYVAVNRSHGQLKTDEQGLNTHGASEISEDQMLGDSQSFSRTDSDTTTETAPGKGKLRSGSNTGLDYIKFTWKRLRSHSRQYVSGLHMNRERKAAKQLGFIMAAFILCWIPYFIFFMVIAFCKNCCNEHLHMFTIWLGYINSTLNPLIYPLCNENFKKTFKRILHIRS
Sequence of 5-HT2A receptor (P28223 whole entry): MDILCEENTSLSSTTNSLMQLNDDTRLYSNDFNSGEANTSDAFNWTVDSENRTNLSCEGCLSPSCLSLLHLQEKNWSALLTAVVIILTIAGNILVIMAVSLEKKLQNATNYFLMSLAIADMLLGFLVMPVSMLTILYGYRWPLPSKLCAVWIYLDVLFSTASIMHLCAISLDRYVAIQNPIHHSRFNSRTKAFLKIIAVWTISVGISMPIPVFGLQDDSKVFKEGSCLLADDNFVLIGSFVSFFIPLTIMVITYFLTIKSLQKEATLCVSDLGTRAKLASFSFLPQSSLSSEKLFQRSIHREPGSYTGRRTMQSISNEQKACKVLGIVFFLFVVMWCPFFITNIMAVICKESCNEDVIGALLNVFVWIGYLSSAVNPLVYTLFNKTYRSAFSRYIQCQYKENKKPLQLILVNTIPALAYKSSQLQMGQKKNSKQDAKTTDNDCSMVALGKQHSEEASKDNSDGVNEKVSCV
Sequence of 5-HT4 receptor (Q13639 whole entry): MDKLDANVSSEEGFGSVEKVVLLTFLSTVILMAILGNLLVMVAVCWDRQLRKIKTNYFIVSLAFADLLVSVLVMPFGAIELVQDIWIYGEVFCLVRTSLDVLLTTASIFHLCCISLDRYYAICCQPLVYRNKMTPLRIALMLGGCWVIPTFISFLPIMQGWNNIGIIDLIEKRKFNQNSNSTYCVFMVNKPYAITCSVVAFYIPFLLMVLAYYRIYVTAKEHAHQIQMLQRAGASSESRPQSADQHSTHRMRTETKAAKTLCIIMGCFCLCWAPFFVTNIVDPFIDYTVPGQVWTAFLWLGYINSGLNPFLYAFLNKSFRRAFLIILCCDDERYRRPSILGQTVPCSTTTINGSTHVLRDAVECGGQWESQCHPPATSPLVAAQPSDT

Structure (SMILES): OCCN1CCN(CCCN2c3ccccc3Sc3ccc(C(F)(F)F)cc32)CC1 [ICI-01175, fluphenazine, reference compound]
Brain Penetration Classification (MDR1-MDCK [1]): High (1) A-B Papp > 3.0 and Efflux Ratio < 3.0: High)

Structure (SMILES): CC(=O)NCCN1CCC(CCCN2c3ccccc3Sc3ccc(C(F)(F)F)cc32)CC1 [ICI-00850]
Brain Penetration Classification (MDR1-MDCK [1]): Low (3) A-B Papp > 3.0 and Efflux Ratio > 10: Low)

Structure (SMILES): NCC(=O)NCCCN1CCN(CCCN2c3ccccc3Sc3ccc(C(F)(F)F)cc32)CC1 [ICI-00822]
Brain Penetration Classification (MDR1-MDCK [1]): Low (3) A-B Papp > 3.0 and Efflux Ratio > 10: Low)

binding to histamine type 1 receptor [3]: able to bind histamine type 1 receptor
Structure (SMILES): CNCC(=O)NCCN1CCC(CCCN2c3ccccc3Sc3ccc(C(F)(F)F)cc32)CC1 [ICI-00849]
reduction of ankle diameter ([2]; listed as ICI-849): decrease the ankle diameter to a desirable level; also recorded: most desirable reduction of ankle diameter | efficacy in reducing ankle diameter compared with Enbrel [2]: more effective in reducing the ankle diameter than Enbrel | Brain Penetration Classification (MDR1-MDCK [1]): Low (3) A-B Papp > 3.0 and Efflux Ratio > 10: Low) | ability to inhibit proliferation of RPMI cells [4]: able to inhibit the proliferation of RPMI cells

Structure (SMILES): N#Cc1ccc2c(c1)N(CCCN1CCN(CCN)CC1)c1ccccc1S2 [ICI-00894]
Brain Penetration Classification (MDR1-MDCK [1]): Low (3) A-B Papp > 3.0 and Efflux Ratio > 10: Low)

Structure (SMILES): NCC(N)C(=O)NCCN1CCN(CCCN2c3ccccc3Sc3ccc(C(F)(F)F)cc32)CC1 (stereo not shown) [ICI-761]
reduction of ankle diameter [2]: decrease the ankle diameter to a desirable level | efficacy in reducing ankle diameter compared with Enbrel [2]: more effective in reducing the ankle diameter than Enbrel | ability to inhibit proliferation of RPMI cells [4]: able to inhibit the proliferation of RPMI cells

Structure (SMILES): FC(F)(F)c1ccc2c(c1)N(CCCC1CCNCC1)c1ccccc1S2 [ICI-00824]
toxicity (Female Lewis rats): not toxic

Structure (SMILES): NCCCN1CCN(CCCN2c3ccccc3Sc3ccc(C(F)(F)F)cc32)CC1 [ICI-00760]
Brain Penetration Classification (MDR1-MDCK [1]): Low (3) A-B Papp > 3.0 and Efflux Ratio > 10: Low)

Structure (SMILES): FC(F)(F)c1ccc2c(c1)N(CCCN1CCNCC1)c1ccccc1S2 [ICI-00685]
Brain Penetration Classification (MDR1-MDCK [1]): Low (3) A-B Papp > 3.0 and Efflux Ratio > 10: Low)

% Recovery A-B (MDR1-MDCK [5]): 47% | % Recovery B-A (MDR1-MDCK [5]): 33% | Papp A-B (MDR1-MDCK [5]): 0.23 ×10⁻⁶ cm/s | Papp B-A (MDR1-MDCK [5]): 28.6 ×10⁻⁶ cm/s | Efflux (MDR1-MDCK [5]; dog): 124 | binding to histamine type 1 receptor [3]: able to bind histamine type 1 receptor
Structure (SMILES): NCC(=O)NCCN1CCN(CCCN2c3ccccc3Sc3ccc(C(F)(F)F)cc32)CC1 [ICI-00735]
reduction of ankle diameter [2]: did not have a desirable reduction of ankle diameter

Structure (SMILES): NCC(=O)NCCN1CCC(CCCN2c3ccccc3Sc3ccc(C(F)(F)F)cc32)CC1 [ICI-00848]
binding to 5-HT4 receptor compared to fluphenazine (5-HT4 receptor): increased binding | toxicity (Female Lewis rats): not toxic | reduction of ankle diameter ([2]; listed as ICI-848): decrease the ankle diameter to a desirable level; also recorded: most desirable reduction of ankle diameter | efficacy in reducing ankle diameter compared with Enbrel [2]: more effective in reducing the ankle diameter than Enbrel | binding to histamine type 1 receptor [3]: able to bind histamine type 1 receptor | binding to 5-HT1A receptor compared to fluphenazine (5-HT1A receptor): decreased binding | ability to inhibit proliferation of RPMI cells [4]: able to inhibit the proliferation of RPMI cells | binding to 5-HT2A receptor compared to fluphenazine (5-HT2A receptor): decreased binding

Structure (SMILES): CN(C)S(=O)(=O)c1ccc2c(c1)N(CCCN1CCN(CCN)CC1)c1ccccc1S2 [ICI-00715]
toxicity (Female Lewis rats): not toxic | reduction of ankle diameter [2]: decrease the ankle diameter to a desirable level | efficacy in reducing ankle diameter compared with Enbrel [2]: more effective in reducing the ankle diameter than Enbrel | ability to inhibit proliferation of RPMI cells [4]: able to inhibit the proliferation of RPMI cells

Structure (SMILES): CNCC(=O)NCCCN1CCN(CCCN2c3ccccc3Sc3ccc(C(F)(F)F)cc32)CC1 [ICI-00823]
toxicity (Female Lewis rats): not toxic | reduction of ankle diameter [2]: decrease the ankle diameter to a desirable level

Structure (SMILES): CN(C)CCN1CCN(CCCN2c3ccccc3Sc3ccc(C(F)(F)F)cc32)CC1 [ICI-00738]
toxicity (Female Lewis rats): not toxic

Structure (SMILES): OCCN1CCN(CCCN2c3ccccc3Sc3ccc(C(F)(F)F)cc32)CC1 [ICI-01176]
% Recovery A-B (MDR1-MDCK [1]; MDR1-MDCK, A-B direction): 35% | Papp A-B (MDR1-MDCK [1]; MDR1-MDCK, A-B direction): 0.78 ×10⁻⁶ cm/s | % Recovery B-A (MDR1-MDCK [1]; MDR1-MDCK, B-A direction): 55% | Papp B-A (MDR1-MDCK [1]; MDR1-MDCK, B-A direction): 34.2 ×10⁻⁶ cm/s | Efflux (MDR1-MDCK [1]; MDR1-MDCK, efflux ratio): 44 | Brain Penetration Classification (MDR1-MDCK [1]): Low (3) A-B Papp > 3.0 and Efflux Ratio > 10: Low)

Structure (SMILES): CN(C)CCCN1CCC(CCCN2c3ccccc3Sc3ccc(C(F)(F)F)cc32)CC1 [ICI-01505]
Brain Penetration Classification (MDR1-MDCK [1]): Low (3) A-B Papp > 3.0 and Efflux Ratio > 10: Low)

Structure (SMILES): NCCCN1CCC(CCCN2c3ccccc3Sc3ccc(C(F)(F)F)cc32)CC1 [ICI-00847]
reduction of ankle diameter ([2]; listed as ICI-847): decrease the ankle diameter to a desirable level; also recorded: most desirable reduction of ankle diameter | efficacy in reducing ankle diameter compared with Enbrel [2]: more effective in reducing the ankle diameter than Enbrel | Brain Penetration Classification (MDR1-MDCK [1]): Low (3) A-B Papp > 3.0 and Efflux Ratio > 10: Low) | ability to inhibit proliferation of RPMI cells ([4]; listed as ICI-847): able to inhibit the proliferation of RPMI cells

Structure (SMILES): NCCN1CCC(CCCN2c3ccccc3Sc3ccc(C(F)(F)F)cc32)CC1 [ICI-00846]
Brain Penetration Classification (MDR1-MDCK [1]): Low (3) A-B Papp > 3.0 and Efflux Ratio > 10: Low)

Structure (SMILES): FC(F)(F)c1ccc2c(c1)N(CCCCN1CCNCC1)c1ccccc1S2 [ICI-00890]
Brain Penetration Classification (MDR1-MDCK [1]): Low (3) A-B Papp > 3.0 and Efflux Ratio > 10: Low)

Structure (SMILES): CNCC(=O)NCCN1CCN(CCCN2c3ccccc3Sc3ccc(C(F)(F)F)cc32)CC1 [ICI-00758]
toxicity (Female Lewis rats): not toxic | Brain Penetration Classification (MDR1-MDCK [1]): Low (3) A-B Papp > 3.0 and Efflux Ratio > 10: Low)
